Laboratory results reported in patent US20230092005A1, “COMPOSITIONS AND METHODS FOR TREATING CANCER AND TUMOR” (OBLATO, INC., priority 2020, published 2023).

Key:
Solubility in water = assay type: physicochemical; details: free acid
Procedure: In certain embodiments, the 2,4-ds-PBN can be prepared by a two-step reaction sequence. For example, tertiary butyl […] (2-methyl-2-nitropropane) can be converted to the corresponding n-hydroxylamine using a suitable catalyst such as an activated zinc/acetic acid catalyst or an aluminum/mercury amalgam catalyst. This reaction can be carried out in about 0.5 to 12 hours and especially about 2 to 6 hours or so at a temperature of about 15-100° C. in a liquid reaction medium such as alcohol/water mixture in the case of the zinc catalyst or an ether/water mixture in the case of the aluminum amalgam catalyst. The freshly formed hydroxylamine can be reacted with 4-formyl-1,3-benzenedisulfonic acid, with a slight excess of the amine being used. This reaction can be carried out at similar temperature conditions. This reaction can be completed in from about 10 to about 24 hours. The formed material through the two reactions can be the free acid and be characterized by a molecular weight of 337.3 g/mole. In some embodiments, the formed material can be a white powdery material that decomposes upon heating. In non-limiting embodiments, the formed material can be characterized by solubility in water of greater than 1 gram/ml and a^1H NMR spectrum in D2O of 8.048 ppm (dd, 8.4, 1.7 Hz); 8.836 ppm (d, 8.4 Hz); 8.839 ppm (d, 1.7 Hz); 8.774 ppm (s).

[1] = tested on: human A549 lung cancer xenografts; experiment: Anti-cancer efficacy in nude mice carrying human A549 lung cancer xenografts (tumor volume, tumor weight, growth inhibition rate); assay type: in vivo, BALB/c Nude mouse; details: for Tumor volume (mean): G5, 2 mg/kg I.P. once a week
Procedure: The anti-cancer efficacy of OKN-007 was assessed after oral administration in nude mice carrying human A549 lung cancer xenografts implanted subcutaneously in the flank. Human lung cancer cell line, A549 was used. […] The frozen cells were thawed in a water bath. Cells were placed in a tube containing the medium and centrifuged (1,000 rpm, 5 minutes) to discard the supernatant. After re-suspending with the culture medium, cells were placed in a cell culture flask and incubated in a 5% CO2 incubator at 37° C. Cells were sub-cultured at a ratio of 1:5 when grown with confluency of 70-80% in the culture container. Cells cultured on the day of cell line transplantation were centrifuged (1,000 rpm, 5 minutes) to discard the supernatant and to make cell suspension with D-PB S. Then, the cell suspension was mixed with Matrigel at a ratio of 1:1 (5×10^7 cells/mL). BALB/c Nude mouse, [NT]-Foxnlnu/CrlOri, SPF was used. Sex, number, age, and body weight range of animals at receipt: The mice (65 mice) were male, 5 weeks old, and had about 14.5-19.6 g weight at the receipt. Cell transplantation: After the quarantine-acclimation period, the body weight measurement and cell transplantation in healthy animals were performed. […] Prepared cell (1×10^7 cells/0.2 mL) suspension was injected subcutaneously into the right flank with disposable syringes. […] Group assignment: After transplanting cells, each tumor size was monitored for 65 animals. When tumor volume reached within 87-112 mm^3, 50 animals were assigned to the respective groups with an average tumor volume of about 99 mm^3. Based on the tumor volume, animals were selected and randomly distributed into 5 groups (10 animals/group). Dosing Route: Oral administration. The route of administration was oral because the clinical application of the test substance is oral. Method and frequency of administration: For negative control and test substance, oral administration was performed once a day for 4 weeks for a total of 28 times using a disposable syringe. For positive control, intraperitoneal administration was performed once a week for 4 weeks for a total of 4 times using a disposable syringe. Dosing Route: The dose levels of the test substance were selected at 150, 300, and 600 mg/kg. The dose level of the positive substance was selected at 2 mg/kg. The dose volume was selected at 10 mL/kg for all groups, and the individual dose was calculated based on the bodyweight of animals just prior to dosing. Measurement of tumor volume: The largest diameter (a) and the smallest diameter (b) of each tumor were measured using calipers twice a week during the observation period. The tumor volume (TV) was calculated twice a week according to the following formula: TV (mm^3)=(a (mm)×b^2 (mm^2))/2. The volume of a tumor before administration to each animal was set to the value measured at the time of group assignment. Tumor removal and measurement of body weight: After the observation period, animals were anesthetized by inhalation of isoflurane. After the tumor was extracted, the weight of the removed tumor was recorded. The tumor growth inhibition rate (IR) was calculated using the following formula: IR (%)=(1-T/C)×100, where T is a mean tumor weight in the test substance group, and positive substance group, and C is a mean tumor weight in the negative control group.

[2] = tested on: human A549 lung cancer xenografts; experiment: TUNEL staining of extracted A549 xenograft tumors (apoptosis counting and grading); assay type: in vivo, BALB/c Nude mouse; details: for Apoptosis counting No. (group mean ± S.D.): TUNEL positive cells per 1 mm^2; for Number of apoptotic cells in the tumor compared to the negative control group (G1): G5, 2 mg/kg, TUNEL
Description: Histopathological test: The extracted tumors were fixed in 10% neutral buffered formalin solution (10% neutral buffered formalin). After sectioning the tumors to a certain thickness (about 3 mm), those were subjected to the general preparation procedure, embedded in paraffin, cut into 4 to 5 μm size, and tissue sections were stained with Hematoxylin and Eosin (H&E) and TUNEL. IHC (Immunohistochemistry) slides, cut into 4 to 5 μm size, were produced and sent to the sponsor (Negative Control Group (G1), Test substance 2 (G3, Animal ID Nos.: 1301, 1302, 1303, 1307, 1310), Test substance 3 (G4, Animal ID Nos.: 1401, 1402, 1404, 1408, 1409)). Determination of TUNEL staining results: After histological examination of the entire cross-section of the tumor for grading (±, +, ++, +++, ++++) of apoptosis, the nucleated brown stained cells were read as […] was counted. The apoptosis of the tumor was determined by the number of positive cells per […] (1 mm^2). The apoptosis of the tumor was determined by calculating the average number of positive cells and graded into the corresponding severity. The number of positive cells in which apoptosis occurred was determined by counting the number of positive cells per unit area (1 mm^2). Histopathological test (Table 7, FIGS. 7-11): The extracted fixed tumor was cut to a certain thickness (about 3 mm), then subjected to general tissue treatment, paraffin-embedded to produce blocks, and tissue sections of 4 to 5 μm in size were prepared. Then, Hematoxylin & Eosin (H&E) staining and TUNEL staining were performed.

[3] = tested on: human A549 lung cancer xenografts; experiment: Hematoxylin & Eosin (H&E) staining of extracted A549 xenograft tumors (necrosis grading); assay type: in vivo, BALB/c Nude mouse
Description: Histopathological test: The extracted tumors were fixed in 10% neutral buffered formalin solution (10% neutral buffered formalin). After sectioning the tumors to a certain thickness (about 3 mm), those were subjected to the general preparation procedure, embedded in paraffin, cut into 4 to 5 μm size, and tissue sections were stained with Hematoxylin and Eosin (H&E) and TUNEL. IHC (Immunohistochemistry) slides, cut into 4 to 5 μm size, were produced and sent to the sponsor (Negative Control Group (G1), Test substance 2 (G3, Animal ID Nos.: 1301, 1302, 1303, 1307, 1310), Test substance 3 (G4, Animal ID Nos.: 1401, 1402, 1404, 1408, 1409)). Determination of Hematoxylin & Eosin (H&E) staining results: Necrosis of tumors was assessed by grading (±, +, ++, +++, ++++) the extent of necrosis in the whole section of the tumor. Necrosis was evaluated by morphological changes such as collapse or disappearance of the nucleus and eosinophilic change of cytoplasm. The extent of tumor necrosis was determined by the percentage of the following necrosis area. Histopathological test (Table 7, FIGS. 7-11): The extracted fixed tumor was cut to a certain thickness (about 3 mm), then subjected to general tissue treatment, paraffin-embedded to produce blocks, and tissue sections of 4 to 5 μm in size were prepared. Then, Hematoxylin & Eosin (H&E) staining and TUNEL staining were performed.

Compound `CC(C)(C)/[N+]([O-])=C\c1ccc(S(=O)(=O)O)cc1S(=O)(=O)O` [2,4-ds-PBN, 2,4-disulfonyl a-phenyl tert-butyl nitrone] has a solubility (Solubility in water) greater than 1000 mg/mL.
For `N.N.[Cl][Pt][Cl]` [cisplatin, Cis-Diammineplatinum (II) dichloride, reference compound], the “Tumor weights (mean)” value ([1]; G5, 2 mg/kg I.P. once a week for 4 weeks, tumors weighed at day 29) was 0.37 g, the “Tumor volume (mean)” value ([1]; day 1 (before administration)) was 99 mm^3 and the “Tumor volume (mean)” value ([1]; day 5 after administration) was 152 mm^3. The “Tumor volume (mean)” value ([1]; day 8 after administration) was 171 mm^3, the “Tumor volume (mean)” value ([1]; day 12 after administration) was 176 mm^3 and the “Tumor volume (mean)” value ([1]; day 15 after administration) was 199 mm^3. For the same compound, the “Tumor volume (mean)” value ([1]; day 19 after administration) was 250 mm^3, the “Tumor volume (mean)” value ([1]; day 22 after administration) was 314 mm^3 and the “Tumor volume (mean)” value ([1]; day 26 after administration) was 385 mm^3. The “Tumor volume (mean)” value ([1]; day 29 after administration) was 481 mm^3, the “Tumor growth inhibition rate (IR)” value ([1]; G5, 2 mg/kg I.P., IR=(1-T/C)x100 from mean tumor weights, day 29) was 59.8% and the “Tumor volume and size compared to the negative control” value ([1]; G5, 2 mg/kg, end of the observation period) was “statistically significant decrease in tumor volume and size”. For the same compound, the “Apoptosis grade + : number of animals” value ([2]; G5, 2 mg/kg I.P., N=10) was 2, the “Apoptosis grade ++ (moderate): number of animals” value ([2]; G5, 2 mg/kg I.P., N=10) was 0 and the “Apoptosis grade +++ (marked): number of animals” value ([2]; G5, 2 mg/kg I.P., N=10) was 0. For the same compound, the “Apoptosis grade ++++ (severe): number of animals” value ([2]; G5, 2 mg/kg I.P., N=10) was 0, the “Apoptosis grade ± (minimal): number of animals” value ([2]; G5, 2 mg/kg I.P., N=10) was 8 and the “Apoptosis counting No. (group mean ± S.D.)” value ([2]; G5, 2 mg/kg I.P.) was 87.5 ± 50.6 No./mm^2. The “Apoptosis counting No. (group mean ± S.D.)” value ([2]; G5, 2 mg/kg I.P., listed as Cisplatin) was 87.5±50.6 No./mm^2, the “Number of apoptotic cells in the tumor compared to the negative control group (G1)” value [2] was “significant increase in the number of apoptotic cells” and the “Number of apoptotic cells in the tumor compared to the negative control group (G1)” value ([2]; listed as Cisplatin) was “no statistically significant difference”. For the same compound, the “Necrosis grade + : number of animals” value ([3]; G5, 2 mg/kg I.P., N=10) was 2, the “Necrosis grade ++ (moderate): number of animals” value ([3]; G5, 2 mg/kg I.P., N=10) was 2 and the “Necrosis grade +++ (marked): number of animals” value ([3]; G5, 2 mg/kg I.P., N=10) was 0. The “Necrosis grade ++++ (severe): number of animals” value ([3]; G5, 2 mg/kg I.P., N=10) was 0, the “Necrosis grade ± (minimal): number of animals” value ([3]; G5, 2 mg/kg I.P., N=10) was 6 and the “Severity of necrosis compared to the negative control group (G1)” value ([3]; G5, 2 mg/kg, H&E) was “does not significantly different”.
